From patent publication US12583846B2, “2H-benzopyran derivatives as CRAC inhibitors” (CISEN PHARMACEUTICAL CO., LTD, priority 2019, dated 2026) come the findings set out here.

For one data set, the system named is IL-2. In words: Inhibitory activity on cytokines: IL-2 in supernatant of anti-CD3/anti-CD28 stimulated hPBMC by CBA method. The data set is classed as cell-based. To be noted: Homo sapiens, 48 h, anti-CD3/anti-CD28, 2 days incubation. Here is the method:
(§1) Human peripheral blood mononuclear cells (hPBMC); supplier: HemaCare; Article Number: PB009C-2
(§2) 96-well plates were coated with 5 μg/mL anti-human CD3 antibody (in DPBS) at […] overnight at 4° C.
(§3) PBMC were removed from liquid nitrogen and immediately placed in a 37° C. water bath for recovery. To a 15 mL centrifuge tube, 5 mL culture medium (RPMI1640 culture medium+10% fetal bovine serum+1% non-essential amino acids+1% penicillin streptomycin+0.05 mM β-mercaptoethanol) was added, and the cell suspension was pipetted to the centrifuge tube, and the mixture was centrifuged at 320 g for 5 minutes. The cells were resuspended with culture medium and counted, and the cell concentration was then adjusted to 5×10^5 cells/mL with the culture medium, To the cell suspension was added anti-human CD28 antibody (final concentration 2 μg/mL), and the mixture was inoculated into a 96-well plate at 200 μL/well.
(§4) Compounds were prepared at the desired concentration and added to the cells. The mixture was incubated at 37° C., 5% CO2 for 2 days.
The standards were prepared according to the instructions of IL-2 and TNFα Flex Set kit. The supernatant of the cultured cells was diluted 5-fold with the buffer provided in the kit and added to a 96-well plate together with the standards. The plated was added with magnetic beads containing antibody from the kit, and incubated at room temperature for 1 hour. The fluorescein PE-labeled secondary antibody in the kit was added and incubated at room temperature for 2 hours. The average fluorescence intensity of the PE channel was detected by flow cytometry. Based on the average fluorescence intensity of the standards, the contents of IL-2 and TNF-α of the samples were calculated.

Data set [1] concerns bombesin-induced acute pancreatitis model in mice. Nature of the data set: Pharmacodynamic test of bombesin-induced acute pancreatitis in mice (compound 6). The data set is classed as in vivo, C57BL/6 mice. To be noted: compound 6 intraperitoneal 20 mg/kg; bombesin 50 μg/kg x 7; FIG. 2. How it is done:
Purpose of the experiment: male C57BL/6 mice were used as test animals, and acute pancreatitis was induced by intraperitoneal injection of bombesin. The efficacy of compound 6 on acute pancreatitis was studied.
Drug preparation: an appropriate amount of sample was weighed, and compound 6 was prepared to a 4 mg/mL clear solution with 40% PEG-400+20% Solutol+40%+H2O (v/v).
Experiment scheme: healthy male C57BL/6 mice were injected with bombesin intraperitoneally to induce pancreatitis model, at a dose of 50 μg/kg each time, with 7 injections at an interval of 1 hour. One hour after the seventh injection of bombesin, serum was taken and the levels of amylase and lipase were measured. Compound 6 was administered by intraperitoneal injection at a dose of 20 mg/kg.
Experimental results: see FIG. 2. The levels of plasma amylase (AMY) and lipase (LPS) were analyzed by one-way ANOVA, * * indicates significant difference with G1 (P<0.01), * indicates significant difference with G1 (P<0.05).

The next data set deals with TNF-α. Nature of the data set: Inhibitory activity on cytokines: TNFα in supernatant of anti-CD3/anti-CD28 stimulated hPBMC by CBA method. It is filed as cell-based. To be noted: Homo sapiens, 48 h, anti-CD3/anti-CD28, 2 days incubation. Here is the method: as §1, §2, §3, §4
The standards were prepared according to the instructions of IL-2 and TNFα Flex Set kit. […] The average fluorescence intensity of the PE channel was detected by flow cytometry. Based on the average fluorescence intensity of the standards, the contents of IL-2 and TNF-α of the samples were calculated.

Data set [2] can be described thus: Pharmacokinetic evaluation experiment in mice (intravenous or intraperitoneal injection of compound 6). It is filed as in vivo, C57BL/6 mice. Here is the method: Purpose of the experiment: male C57BL/6 mice were used as test animals, and the plasma drug concentrations of the test compounds were determined by LC/MS/MS at different time points after intravenous or intraperitoneal injection. The pharmacokinetic behavior of the test compound in mice was studied to evaluate its pharmacokinetic characteristics.
Drug preparation: an appropriate amount of sample was weighed to prepare 0.3 mg/mL or 0.5 mg/mL clear solution with 40% PEG400+20% Solutol+40% H2O (volume ratio).
Administration scheme: two healthy male C57BL/6 mice purchased from Beijing Vital River Laboratory Animal Technology Co., Ltd. was on a normal diet. The intravenous injection group was administered with 0.5 mg/mL solution, with a dose volume of 2 mL/kg and a dose of 1 mg/kg. The intraperitoneal injection group was administered with 0.3 mg/mL solution, with a volume of 10 mL/kg and a dose of 3 mg/kg.
Procedure: after animal administration, 25 μL of blood was collected at 0.083, 0.25, 0.5, 1, 2, 4, 8, 12, and 24 hours, respectively and placed in a commercial anticoagulative tube pre-loaded with EDTA-K2. The tubes were centrifuged for 10 minutes to separate plasma and stored at −60° C. The content of target compound in plasma samples was determined by LC/MS/MS.

Data set [3] in a line: Pharmacokinetic evaluation in mice (intravenous administration of compound 18 or 22, 50 mg/kg). It is filed as in vivo, C57BL/6 mice. To be noted: for elimination in plasma after administration (in words): intravenous 50 mg/kg. Here is the method: Purpose of the experiment: male C57BL/6 mice were used as test animals, and the LC/MS/MS method was applied to determine the plasma drug concentrations of the compounds at different time points after intravenous administration. The pharmacokinetic behavior of the compounds in mice was studied, and their pharmacokinetic characteristics were evaluated.
Drug preparation: an appropriate amount of sample was weighed to prepare 5 mg/mL of clear solution with sterile normal saline.
Administration scheme: two healthy male C57BL/6 mice purchased from Beijing Vital River Laboratory Animal Technology Co., Ltd. was on a normal diet, with a volume of 10 mL/kg and a dose of 50 mg/kg.
Procedure: after animal administration, 25 μL of blood was collected at 0.083, 0.25, 0.5, 1, 2, 4, 8, 12, and 24 hours, respectively and placed in a commercial anticoagulative tube pre-loaded with EDTA-K2. The tubes were centrifuged for 10 minutes to separate plasma and stored at −60° C. The content of the corresponding compounds in plasma samples was determined by LC/MS/MS.

Data set [4] can be described thus: Thermodynamic solubility test. It is filed as physicochemical. To be noted: for solubility in water (in words): conclusion of the thermodynamic solubility test. Here is the method: About 2 mg of test compound was weighed into a whatman vial, and 450 μL of phosphate buffer (50 mM, pH=7.4) was added. The stopper of whatman vial was pressed to near the liquid level so that the filter membrane in the stopper is in uniform contact with the liquid level. The vial was shaken well up and down on vortex for two minutes, and the dissolution of test compound in the whatman vial was recorded. The whatman vial was shaken in a shaker at ambient temperature for 24 hours at a rotational speed of 600 r/min. The stopper of whatman vial was slowly pressed to the lowermost part to obtain the supernatant. […] A linear solution (3 standard solutions, 1, 20, 200 μM, n=1) was prepared with diluent. The supernatant was taken out, and 10 μL of the supernatant was accurately taken out and diluted 100 times. The obtained diluent and stock solution and linear solution were simultaneously put into HPLC for detection and analysis, and the results were calculated by an external standard method according to peak area and dilution factor.

Setting [5] is: male, C57BL/6, mouse, plasma, intravenous injection, 1 mg/kg.
Where [6] appears, read: male, C57BL/6, mouse, plasma, ip, intraperitoneal injection, 3 mg/kg.
Where [7] appears, read: administered compound itself in plasma, 50 mg/kg intravenous, mice, 50 mg/kg.
Where [8] appears, read: male, C57BL/6, mouse, plasma, iv, 50 mg/kg, administered compound itself in plasma, 50 mg/kg intravenous, mice.

Each structure is given as a SMILES string.

Usually IC50 stands for the concentration at which inhibition is half-maximal. The compound `O=C(Nc1cnc(-c2cc3oc(C4CC4)nc3cc2Cl)cn1)c1c(F)cccc1F` [Compound 4] gave an IC50 in the data set on IL-2 of 280 nM.

A word on the AUC(0-t): it is exposure summed from dosing to a finite time, without extrapolation to infinity. Read a low AUC(0-t) as less exposure. The term half-life denotes how long it takes for the measured level to halve. Higher therefore signals slow loss. The Cmax is the highest concentration seen after dosing. As usually defined, the Tmax is the time at which the peak concentration occurs. For the compound `O=C(Nc1cnc(-c2cc3oc(C4CC4)cc3cc2Cl)cn1)c1c(F)cccc1F` [Compound 6], in data set [1], the “serum amylase (AMY) level” value is recorded as “significantly reduce” and the “serum lipase (LPS) level” value was “significantly reduce”. The same compound returned an IC50 in the data set with IL-2 of 63.8 nM. For the same compound, half-maximal inhibition in the data set with TNF-α (IC50) required 138 nM. Moreover, the “plasma exposure and pharmacokinetic properties (in words)” value in data set [2] (intravenous and intraperitoneal routes) is “higher plasma exposure and desirable pharmacokinetic properties”. In addition, the bioavailability in data set [2] (male, C57BL/6, mouse, plasma, intraperitoneal 3 mg/kg vs intravenous 1 mg/kg) was determined as 125%. In data set [2] (setting [5]), this compound gave an AUC(0-t) of 15.6 µM·h, a clearance of 2.05 mL/min/kg and a half-life of 10.6 h. Also, the Vd in data set [2] (male, C57BL/6, mouse, plasma, intravenous injection, 1 mg/kg, read-out: Vdss) was found to be 1.77 L/kg. Also, in data set [2] (setting [6]), the AUC(0-t) is 62.7 µM·h, the Cmax was determined as 5.53 µM and the Tmax amounted to 2 h. Also, in data set [3] (from 5 min of administration of compound 18 or 22, mice), the “formation of compound 6 in plasma (in words)” value is reported as “a large amount”.

Consider `O=C(Nc1cnc(-c2cc3oc(C4COC4)cc3cc2Cl)cn1)c1c(F)cccc1F` [Compound 17], for which the IC50 in the data set with IL-2 was found to be 173 nM; in the data set on TNF-α, 328 nM.

As usually defined, the thermodynamic solubility is the concentration in solution at equilibrium with solid. For the compound `O=C(c1c(F)cccc1F)N(COP(=O)(O)O)c1cnc(-c2cc3oc(C4CC4)cc3cc2Cl)cn1` [Compound 18], in data set [4] (aqueous buffer, thermodynamic from solid, phosphate buffer 50 mM, pH 7.4, 24 hours, ambient temperature), the solubility (thermodynamic) at 24 h is > 200 µM. In addition, the “solubility in water (in words)” value in data set [4] is “very good”. Moreover, the “DNAUC0-last (exposure normalized to molar dose)” value in data set [3] (setting [7]) turned out to be 0.69 µM·h. In addition, in data set [3] (setting [8]), the exposure AUC(0-t) is 57.2 µM·h, the clearance turned out to be 25.1 mL/min/kg and the half-life was 2.49 h. The Vd in data set [3] (male, C57BL/6, mouse, plasma, iv, 50 mg/kg, administered compound itself in plasma, 50 mg/kg intravenous, mice, read-out: Vdss) is 0.84 L/kg. Further, the “elimination in plasma after administration (in words)” value in data set [3] (mice) is recorded as “rapidly eliminated”.

By Vdss is commonly meant the apparent volume that relates the amount in the body to the concentration in plasma or blood. High values mean wide distribution into tissue, low ones little distribution into tissue. In the case of `O=C(c1c(F)cccc1F)N(COP(=O)(O)O)c1cnc(-c2cc3oc(C4CC4)cc3cc2Cl)cn1` [Compound 22], in data set [4], the “solubility in water (in words)” value was “very good”. For the same compound, in data set [3] (setting [7]), the AUC0-last is 37.1 µM·h, the CL turned out to be 28.9 mL/min/kg, the “DNAUC0-last (exposure normalized to molar dose)” value was found to be 0.58 µM·h and the T1/2 is 2.53 h. In data set [3] (setting [7]), this compound registered a Vdss of 1.05 L/kg. Besides, the “elimination in plasma after administration (in words)” value in data set [3] (mice) is listed as “rapidly eliminated”.

For `O=C(c1c(F)cccc1F)N(COP(=O)(O)O)c1cnc(-c2cc3oc(C4CC4)cc3cc2Cl)cn1` [Compound 23], in data set [4], the “solubility in water (in words)” value was “very good”.
